Numbers after ± are expanded uncertainties.
What was measured:
[1] = refractive index (Na D-line) (dimensionless); conditions: 298.15 K; 101.33 kPa; Liquid; Standard Abbe refractometry
[2] = 298.15 K; 101.33 kPa; Liquid

| SMILES | refractive index [1] | mass density [2] [kg/m3] |
| --- | --- | --- |
| O [water] | 1.3325 ± 0.0005 | – |
| CC(=O)OCC(C)C [2-methylpropyl ethanoate] | 1.3876 ± 0.0006 | 866.12 ± 1.4 |
| CC(C)CO [2-methyl-1-propanol] | 1.3938 ± 0.0005 | 797.83 ± 0.48 |
| CC(=O)O [acetic acid] | 1.3696 ± 0.0005 | 1043.9 ± 0.11 |
